Data on 6 compounds can be found in US20240218079A1, “PLASMA KALLIKREIN ANTIBODIES AND USES THEREOF” (Astria Therapeutics, Inc., priority 2021, published 2024).

Structures can show the parent of a compound that is named as a salt. Where two headings read alike, the source gives them in different places. Peptide text beside a SMILES is read from it.

Assay type in all cases: biochemical
The target in experiment [1] is Granzyme B (Homo sapiens, UniProt P10144). Kind of experiment: Serine protease inhibition assay: Granzyme B. The note with it: control compound, 10-dose 3-fold serial dilution starting at 10 μM or 100 uM. As to the method:
(§1) Control compounds were tested in a 10-dose assay with 3-fold serial dilution starting at 10 μM or 100 uM (tPA, Matriptase 2, Kallikrein 5, Kallikrein 2, Kallikrein 1, Granzyme B, and APC). The protease activities were monitored as a time-course measurement of the increase in fluorescence signal from a fluorescently-labeled peptide substrate, and the initial linear portion of the signal slope (signal/min) was analyzed. % Enzyme activity for antibody titrations were calculated respective to vehicle controls in presence of PBS buffer as 100% Activity.
(§2) Empty cells indicate no inhibition or compound activity that could not be fit to an IC50 curve. The IC50 value higher than 1 μM was estimated based on the best curve fitting available.

Experiment [2] concerns the target Kallikrein 1 (Homo sapiens, UniProt P06870). Kind of experiment: Serine protease inhibition assay: Kallikrein 1. To be noted: control compound, 10-dose 3-fold serial dilution starting at 10 μM or 100 uM. The method, then:
as §1, §2

Experiment [3] has as its target T1, Factor XIIa (Homo sapiens, UniProt P00748).
T1 sequence (P00748 373-615 limits assumed): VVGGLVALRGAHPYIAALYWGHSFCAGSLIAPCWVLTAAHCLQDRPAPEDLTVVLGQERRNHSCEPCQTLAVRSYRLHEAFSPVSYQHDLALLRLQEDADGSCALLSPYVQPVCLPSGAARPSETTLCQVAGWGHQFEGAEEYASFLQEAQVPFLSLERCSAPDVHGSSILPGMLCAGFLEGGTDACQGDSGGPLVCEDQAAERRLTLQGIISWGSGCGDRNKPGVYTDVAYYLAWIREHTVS
Kind of experiment: Serine protease inhibition assay: Factor XIIa. To be noted: control compound, 10-dose 3-fold serial dilution starting at 10 μM or 100 uM. The method, then:
as §1, §2

Experiment [4] has as its target T2, Kallikrein 12 (Homo sapiens, UniProt Q9UKR0).
T2 sequence (Q9UKR0 18-248): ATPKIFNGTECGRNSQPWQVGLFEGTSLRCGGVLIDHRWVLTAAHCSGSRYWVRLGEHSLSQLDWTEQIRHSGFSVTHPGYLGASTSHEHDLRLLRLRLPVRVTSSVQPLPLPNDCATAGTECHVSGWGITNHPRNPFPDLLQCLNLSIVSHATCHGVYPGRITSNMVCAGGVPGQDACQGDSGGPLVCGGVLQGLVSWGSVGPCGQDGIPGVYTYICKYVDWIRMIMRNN
Kind of experiment: Serine protease inhibition assay: Kallikrein 12. The note with it: control compound, 10-dose 3-fold serial dilution starting at 10 μM or 100 uM. As to the method:
as §1, §2

Experiment [5] concerns the target Hepsin (Homo sapiens, UniProt P05981). Kind of experiment: Serine protease inhibition assay: Hepsin. The note with it: control compound, 10-dose 3-fold serial dilution starting at 10 μM or 100 uM. The method, then: as §1, §2
Experiment [6] has as its system trypsin, human pancrease. Kind of experiment: Trypsin inhibition assay. The note with it: 0.25 nM trypsin, PFR-AMC, 2 hours. The method, then:
Fluorescence intensity was measured every 5 minutes. Gabexate mesylate was used as a positive control, in a dilution series starting at 1 μM. The assay was performed in duplicate.

Experiment [7] deals with Urokinase (Homo sapiens, UniProt P00749). Kind of experiment: Serine protease inhibition assay: Urokinase. To be noted: control compound, 10-dose 3-fold serial dilution starting at 10 μM or 100 uM. The method, then: as §1, §2
The target of experiment [8] is Kallikrein 2 (Homo sapiens, UniProt P20151). Kind of experiment: Serine protease inhibition assay: Kallikrein 2. To be noted: control compound, 10-dose 3-fold serial dilution starting at 10 μM or 100 uM. The method, then:
as §1, §2

Experiment [9] addresses T3, Matriptase 2 (Homo sapiens, UniProt Q8IU80).
T3 sequence (Q8IU80 1-811): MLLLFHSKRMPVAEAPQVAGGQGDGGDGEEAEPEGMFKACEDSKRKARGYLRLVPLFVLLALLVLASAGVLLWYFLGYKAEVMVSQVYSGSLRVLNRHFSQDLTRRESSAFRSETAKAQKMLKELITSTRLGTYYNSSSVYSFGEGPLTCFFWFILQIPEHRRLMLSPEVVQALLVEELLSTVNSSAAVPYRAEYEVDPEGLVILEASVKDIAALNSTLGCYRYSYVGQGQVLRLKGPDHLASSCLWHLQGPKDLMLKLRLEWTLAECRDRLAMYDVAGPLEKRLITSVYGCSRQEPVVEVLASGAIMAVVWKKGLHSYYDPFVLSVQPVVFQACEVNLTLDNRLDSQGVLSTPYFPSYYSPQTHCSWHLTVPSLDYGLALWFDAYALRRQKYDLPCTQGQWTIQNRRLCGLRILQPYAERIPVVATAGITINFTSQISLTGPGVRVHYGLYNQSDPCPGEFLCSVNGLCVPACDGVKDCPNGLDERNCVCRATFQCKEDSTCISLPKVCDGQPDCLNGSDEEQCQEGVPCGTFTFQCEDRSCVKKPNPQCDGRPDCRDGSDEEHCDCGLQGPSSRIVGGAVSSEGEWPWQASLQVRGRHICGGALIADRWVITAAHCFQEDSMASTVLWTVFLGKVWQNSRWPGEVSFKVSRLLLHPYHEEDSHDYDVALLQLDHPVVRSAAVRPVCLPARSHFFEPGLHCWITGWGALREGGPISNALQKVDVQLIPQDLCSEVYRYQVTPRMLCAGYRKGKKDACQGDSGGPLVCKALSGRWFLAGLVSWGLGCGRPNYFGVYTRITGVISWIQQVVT
Kind of experiment: Serine protease inhibition assay: Matriptase 2. The note with it: control compound, 10-dose 3-fold serial dilution starting at 10 μM or 100 uM. The method, then: as §1, §2

In experiment [10] the target is Thrombin a (Homo sapiens, UniProt P00734). Kind of experiment: Serine protease inhibition assay: Thrombin a. The note with it: control compound, 10-dose 3-fold serial dilution starting at 10 μM or 100 uM. The method, then:
as §1, §2

Experiment [11] concerns the target tPA (Homo sapiens, UniProt P00750). Kind of experiment: Serine protease inhibition assay: tPA. To be noted: control compound, 10-dose 3-fold serial dilution starting at 10 μM or 100 uM. As to the method: as §1, §2
Experiment [12] addresses T4, Kallikrein 5 (Homo sapiens, UniProt Q9Y337).
T4 sequence (Q9Y337 23-293): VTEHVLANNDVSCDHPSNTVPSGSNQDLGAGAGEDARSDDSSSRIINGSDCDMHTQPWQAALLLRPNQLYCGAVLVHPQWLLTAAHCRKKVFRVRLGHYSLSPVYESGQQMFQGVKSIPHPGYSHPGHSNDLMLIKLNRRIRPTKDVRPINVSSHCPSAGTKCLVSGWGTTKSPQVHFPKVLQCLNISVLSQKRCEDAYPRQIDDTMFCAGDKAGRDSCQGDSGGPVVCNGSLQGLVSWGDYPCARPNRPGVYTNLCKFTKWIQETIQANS
Kind of experiment: Serine protease inhibition assay: Kallikrein 5. To be noted: control compound, 10-dose 3-fold serial dilution starting at 10 μM or 100 uM. The method, then:
as §1, §2

Experiment [13] concerns the target Activated Protein C (Homo sapiens, UniProt P04070). Kind of experiment: Serine protease inhibition assay: Activated Protein C. To be noted: control compound, 10-dose 3-fold serial dilution starting at 10 μM or 100 uM. The method, then: as §1, §2
The target in experiment [14] is Plasmin (Homo sapiens, UniProt P00747). Kind of experiment: Serine protease inhibition assay: Plasmin. The note with it: control compound, 10-dose 3-fold serial dilution starting at 10 μM or 100 uM. The method, then:
as §1, §2

Experiment [15] has as its target T5, Cathepsin G (Homo sapiens, UniProt P08311).
T5 sequence (P08311 21-244): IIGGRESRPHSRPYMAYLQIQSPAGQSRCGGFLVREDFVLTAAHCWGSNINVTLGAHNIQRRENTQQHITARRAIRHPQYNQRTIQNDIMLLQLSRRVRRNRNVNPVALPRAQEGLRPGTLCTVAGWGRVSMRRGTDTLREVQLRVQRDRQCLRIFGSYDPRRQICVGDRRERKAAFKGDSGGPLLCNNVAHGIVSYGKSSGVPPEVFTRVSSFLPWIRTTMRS
Kind of experiment: Serine protease inhibition assay: Cathepsin G. The note with it: control compound, 10-dose 3-fold serial dilution starting at 10 μM or 100 uM. The method, then: as §1, §2

In experiment [16] the target is T6, Factor VIIa (Homo sapiens, UniProt P08709).
T6 sequence (P08709 213-466 limits assumed): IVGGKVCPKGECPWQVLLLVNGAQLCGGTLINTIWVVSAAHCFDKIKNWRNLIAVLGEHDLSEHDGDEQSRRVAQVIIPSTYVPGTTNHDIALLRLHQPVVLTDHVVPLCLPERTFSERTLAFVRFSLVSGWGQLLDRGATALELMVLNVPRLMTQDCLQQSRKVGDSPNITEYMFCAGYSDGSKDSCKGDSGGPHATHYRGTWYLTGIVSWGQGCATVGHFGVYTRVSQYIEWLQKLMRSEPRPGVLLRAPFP
T6 sequence (P08709 61-212 limits assumed): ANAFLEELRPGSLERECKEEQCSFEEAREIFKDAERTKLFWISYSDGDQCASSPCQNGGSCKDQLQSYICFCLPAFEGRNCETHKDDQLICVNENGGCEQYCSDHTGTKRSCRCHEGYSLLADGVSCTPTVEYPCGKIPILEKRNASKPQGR
Kind of experiment: Serine protease inhibition assay: Factor VIIa. To be noted: control compound, 10-dose 3-fold serial dilution starting at 10 μM or 100 uM. The method, then: as §1, §2

Activated Protein C, sequence (P04070 212-461 limits assumed): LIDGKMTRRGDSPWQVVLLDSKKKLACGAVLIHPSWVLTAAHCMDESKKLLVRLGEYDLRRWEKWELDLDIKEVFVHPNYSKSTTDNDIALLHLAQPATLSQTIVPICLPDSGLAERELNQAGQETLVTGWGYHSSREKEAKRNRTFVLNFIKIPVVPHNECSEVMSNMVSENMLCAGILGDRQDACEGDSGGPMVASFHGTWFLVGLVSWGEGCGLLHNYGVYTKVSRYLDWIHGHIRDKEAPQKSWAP
Activated Protein C, sequence (P04070 43-197 limits assumed): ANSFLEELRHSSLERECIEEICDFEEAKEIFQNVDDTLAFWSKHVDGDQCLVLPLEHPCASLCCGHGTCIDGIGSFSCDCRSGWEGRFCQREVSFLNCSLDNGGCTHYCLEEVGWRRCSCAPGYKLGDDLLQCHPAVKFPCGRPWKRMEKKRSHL
Kallikrein 1, sequence (P06870 25-262, species assumed): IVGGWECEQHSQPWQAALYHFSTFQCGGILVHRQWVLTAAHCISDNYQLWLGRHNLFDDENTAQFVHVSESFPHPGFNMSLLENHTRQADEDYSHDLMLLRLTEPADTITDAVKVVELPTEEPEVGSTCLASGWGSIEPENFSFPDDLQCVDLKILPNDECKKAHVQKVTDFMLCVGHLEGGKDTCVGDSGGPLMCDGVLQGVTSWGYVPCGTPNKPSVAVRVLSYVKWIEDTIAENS
tPA, sequence (P00750 36-562, species assumed): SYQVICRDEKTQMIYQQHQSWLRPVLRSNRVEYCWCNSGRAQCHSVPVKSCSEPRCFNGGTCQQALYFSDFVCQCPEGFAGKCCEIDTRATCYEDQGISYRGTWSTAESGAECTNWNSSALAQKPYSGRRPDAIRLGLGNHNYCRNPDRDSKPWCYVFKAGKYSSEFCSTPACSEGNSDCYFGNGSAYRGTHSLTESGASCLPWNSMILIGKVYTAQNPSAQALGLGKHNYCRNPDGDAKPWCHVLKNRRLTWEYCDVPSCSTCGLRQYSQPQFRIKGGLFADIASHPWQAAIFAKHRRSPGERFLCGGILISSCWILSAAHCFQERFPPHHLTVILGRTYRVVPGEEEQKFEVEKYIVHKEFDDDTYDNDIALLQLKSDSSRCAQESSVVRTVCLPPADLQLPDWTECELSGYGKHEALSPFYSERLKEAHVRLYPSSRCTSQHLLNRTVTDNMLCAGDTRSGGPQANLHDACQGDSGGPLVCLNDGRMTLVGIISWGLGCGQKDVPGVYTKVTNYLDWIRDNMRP
Plasmin, sequence (P00747 581-810 limits assumed, species assumed): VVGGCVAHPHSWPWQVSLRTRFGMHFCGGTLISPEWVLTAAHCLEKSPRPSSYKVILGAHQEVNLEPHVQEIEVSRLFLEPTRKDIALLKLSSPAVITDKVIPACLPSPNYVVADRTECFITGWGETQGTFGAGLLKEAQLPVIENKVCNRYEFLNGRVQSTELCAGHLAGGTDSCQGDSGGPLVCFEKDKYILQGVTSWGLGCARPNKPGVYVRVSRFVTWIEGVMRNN
Plasmin, sequence (P00747 97-580 limits assumed, species assumed): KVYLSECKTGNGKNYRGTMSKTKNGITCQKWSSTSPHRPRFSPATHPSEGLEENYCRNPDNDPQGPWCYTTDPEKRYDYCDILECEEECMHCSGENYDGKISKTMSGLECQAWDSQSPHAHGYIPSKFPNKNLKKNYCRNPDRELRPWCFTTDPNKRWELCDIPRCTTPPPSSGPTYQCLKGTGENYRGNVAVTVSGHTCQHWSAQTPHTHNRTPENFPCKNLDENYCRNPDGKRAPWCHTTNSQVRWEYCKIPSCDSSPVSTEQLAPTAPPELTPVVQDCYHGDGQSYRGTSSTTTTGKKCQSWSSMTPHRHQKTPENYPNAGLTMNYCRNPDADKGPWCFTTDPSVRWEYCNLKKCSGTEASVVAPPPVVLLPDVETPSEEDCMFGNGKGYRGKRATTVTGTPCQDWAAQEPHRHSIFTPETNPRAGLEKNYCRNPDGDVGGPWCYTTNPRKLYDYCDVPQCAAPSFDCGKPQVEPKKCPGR
Granzyme B, sequence (P10144 21-247, species assumed): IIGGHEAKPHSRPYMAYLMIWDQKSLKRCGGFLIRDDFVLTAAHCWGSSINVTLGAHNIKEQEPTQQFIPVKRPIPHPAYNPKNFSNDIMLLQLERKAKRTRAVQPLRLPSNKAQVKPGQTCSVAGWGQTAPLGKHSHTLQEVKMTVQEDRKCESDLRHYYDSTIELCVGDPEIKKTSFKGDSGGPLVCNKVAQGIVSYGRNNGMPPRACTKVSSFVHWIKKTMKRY
Hepsin, sequence (P05981 whole entry): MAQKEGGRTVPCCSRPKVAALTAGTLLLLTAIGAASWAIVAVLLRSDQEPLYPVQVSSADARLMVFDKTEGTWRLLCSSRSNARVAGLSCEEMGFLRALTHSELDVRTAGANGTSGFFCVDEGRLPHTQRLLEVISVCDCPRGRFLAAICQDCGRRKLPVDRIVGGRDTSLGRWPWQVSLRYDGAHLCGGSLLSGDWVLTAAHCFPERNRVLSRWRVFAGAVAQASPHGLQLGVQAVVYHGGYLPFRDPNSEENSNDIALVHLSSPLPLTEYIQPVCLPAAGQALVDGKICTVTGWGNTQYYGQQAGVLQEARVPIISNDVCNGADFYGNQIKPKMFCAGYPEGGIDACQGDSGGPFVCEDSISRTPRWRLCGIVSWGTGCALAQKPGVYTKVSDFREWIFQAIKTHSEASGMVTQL
Kallikrein 2, sequence (P20151 25-261, species assumed): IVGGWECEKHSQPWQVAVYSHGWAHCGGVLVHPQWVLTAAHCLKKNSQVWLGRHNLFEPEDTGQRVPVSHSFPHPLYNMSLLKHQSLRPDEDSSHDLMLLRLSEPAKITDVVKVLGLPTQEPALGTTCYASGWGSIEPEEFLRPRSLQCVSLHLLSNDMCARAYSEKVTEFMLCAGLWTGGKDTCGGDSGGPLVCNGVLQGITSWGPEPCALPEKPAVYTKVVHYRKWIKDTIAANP

Usually IC50 stands for the concentration needed to halve the response being measured. In turn, `CC[C@H](C)[C@H](NC(C)=O)C(=O)N[C@@H](CCC(=O)O)C(=O)N[C@H](C(=O)N[C@H](C=O)CC(=O)O)[C@@H](C)O` [IETD-CHO] (Ac-IETD-aldehyde; N-terminus assumed) gave an IC50 in experiment [1] of 178 nM.
For the compound `CC(=O)N[C@@H](CC(C)C)C(=O)N[C@@H](CC(C)C)C(=O)N[C@H](C=O)CCCNC(=N)N` [Leupeptin], half-maximal inhibition in experiment [2] (IC50) was put at 2990 nM.
In experiment [3], `N=C(N)c1ccc2cc(OC(=O)c3ccc(N=C(N)N)cc3)ccc2c1` [Nafamostat mesylate] returned an IC50 of 23.2 nM.
For the compound “Gabexate mesylate [Gabexate mesylate (GM)]”, the IC50 in experiment [4] is 32.5 nM; in [5], 51 nM; in [6] (read-out: Compound IC50 (M) Data 1) it was 2.13e-09 M; in [6] (read-out: Compound IC50 (M) Data 2), 2.33e-09 M; in [7], 16.5 nM; in experiment [8], 139 nM. The IC50 was 201 nM in experiment [9]; 837 nM in [10]; 1060 nM in experiment [11]; 8730 nM in experiment [12]; 64.8 nM in experiment [13]; 253 nM in experiment [14].
`CC(C)C[C@H](NC(=O)[C@@H](NC(=O)N[C@@H](Cc1ccccc1)C(=O)O)[C@@H]1CCN=C(N)N1)C(=O)N[C@H](C=O)Cc1ccccc1` [Chymostatin] showed an IC50 in experiment [15] of 4090 nM.
As to `N=C(N)c1ccc2nc(-c3cc(CC(=O)N[C@@H](CC(=O)O)C(=O)O)cc(-c4cc(S(N)(=O)=O)ccc4O)c3O)[nH]c2c1` [PCI 27483], the 50% inhibitory concentration (IC50) in experiment [16] came to 141 nM.
